The target in one test is T1, JAK2 (Homo sapiens, UniProt O60674).
T1 construct: purchased Thermo Fisher Scientific (SelectScreen service)
Description: JAK2 enzyme activity assay (Thermo Fisher Selectscreen, Z-lyte). The class given is biochemical. As to conditions: read-out: JAK2 Inhibition IC50. As to the method:
(§1) The inhibitory potency of candidate compounds of JAK1, JAK2, and Tyk-2 was done at Thermo Fisher Scientific in their Selectscreen using a Z-lyte assay. Following are the assay details for each enzyme.
JAK2: The 2×JAK2/Tyr 06 mixture is prepared in 50 mM HEPES pH 7.5, 0.01% BRIJ-35, 10 mM MgCl2, 1 mM EGTA. The final 10 μL Kinase Reaction consists of 0.12-0.5 ng JAK2 and 2 μM Tyr 06 in 50 mM HEPES pH 7.5, 0.01% BRIJ-35, 10 mM MgCl2, 1 mM EGTA. After the one hour Kinase Reaction incubation, 5 μL of a 1:128 dilution of Development Reagent A is added.
(§2) Data reduction for JAK1, JAK2 and TYK2 is done the same, independent of the enzyme run. In summary, background signal is defined in the absence of enzyme and uninhibited signal is defined in the presence of vehicle (2% DMSO) alone. Compounds were evaluated in an 11 point dose-response ranging from […] to 0.34 nM. IC50 values of compounds are determined using a 4 parameter logistical fit of emission ratio as a function of the concentration of compound.

The next test concerns the target T2, JAK3 (a.a. 781-1124) (Homo sapiens, UniProt P52333).
T2 construct: JAK3 (a.a. 781-1124, ThermoFisher); purchased ThermoFisher
Description: JAK3 enzyme activity assay (SRCtide phosphorylation, Caliper). The class given is biochemical. The following applies: 1 uM ATP; read-out: JAK3 Inhibition IC50. As to the method:
The activity of JAK3 (a.a. 781-1124, ThermoFisher) was quantified by measuring the phosphorylation of SRCtide (FAM-GEEPLYWSFPAKKK-NH2). Kinase reactions were run in a 384-well Greiner plate with 2% final DMSO concentration under the buffer conditions of 20 mM HEPES, pH 7.5, 10 mM MgCl2, 0.01% BSA, and 0.0005% Tween-20. The kinase reaction components were 2.5 nM JAK3, 1 μM SRCtide peptide and 1 uM ATP. Examples were tested in dose-response starting at […] (11 concentrations, 3-fold serial dilution, duplicate reactions). The reactions were incubated at room temperature for 40 minutes, then stopped by adding a 1:1 volume of 30 mM EDTA in 20 mM HEPES, pH 7.5 (15 mM EDTA final). After the reaction was stopped, the phosphorylated and unphosphorylated peptides were separated and quantified using a Caliper LC3000/EZ-Reader system and HTS Well Analyzer Software (Caliper, A PerkinElmer Company, Hopkinton, Mass.). GraFit (Erithacus Software Ltd., Horley, U.K.) was used to calculate inhibitor potency by fitting dose-response data to the 4-parameter logistical IC50 equation.

The test system of test [1] is IL-12 stimulated STAT4 phosphorylation on Tyr693 (JAK2/TYK2). Description: JAK2/TYK2 cellular target modulation: IL-12 stimulated phospho-STAT4 in human PBMC. The following applies: IL-12 1.7 ng/ml, read-out: IL12-STAT4 IC50. The class given is cell-based. The source says: (§3) Target modulation was based upon the ability of a compound to inhibit JAK isoform specific phosphorylation of selected substrates. IL-2 stimulated STAT5 phosphorylation on Tyr694 was used to assess JAK1/3 compound selectivity. GM-CSF stimulated STAT5 phosphorylation on Tyr694 was used to assess JAK2 compound selectivity. IFNγ stimulated STAT1 phosphorylation on Tyr701 was used to assess JAK1/2 compound selectivity. IL-12 stimulated STAT4 phosphorylation on Tyr693 was used to assess JAK2/TYK2 compound selectivity. For all four assays, human PBMC from frozen stocks were thawed, pelleted, resuspended in complete media (90% RPMI, 10% heat inactivated FBS, 10 mM HEPES, 47 μM 2-ME, pen/strep) and placed in wells of a 96 well V-bottom plate at 200,000 per well in 120 μl complete media. Compounds were added as 15 μl per well of 10× working stock solutions in complete media with 1% DMSO (or medium with 1% DMSO for controls) and placed on a plate shaker in a 37° C. incubator with 5% CO2 for 1 hour with gentle shaking (setting of 3). Stimulation used the addition of soluble cytokines. For the JAK1/3 phospho-STAT5 assay, 15 μl of 10× working stock recombinant human IL-2 was added to a final concentration of 25 ng/ml. For the JAK2 phospho-STAT5 assay, 15 μl of 10× working stock recombinant human GM-CSF was added to a final concentration of 5 ng/ml. For the JAK1/2 phospho-STAT1 assay, 15 μl of 10× working stock of recombinant human IFNγ was added to a final concentration of 10 ng/ml. For the JAK2/TYK2 phospho-STAT4 assay, 15 μl of 10× working stock of recombinant human IL-12 was added to a final concentration of 1.7 ng/ml. Plates were then placed back on the plate shaker in the incubator for an additional 5, 5, 10, and 25 minutes respectively upon which the plates were removed from the incubator, sealed with a plate sealer and the cells pelleted at 400×g for 5 minutes. After pelleting, the media was removed by aspiration and the cells were lysed in assay specific cell lysis buffer. The levels of phospho-STAT5 were determined using a Phospho (Tyr694)STAT5a,b Whole Cell Lysate kit from Meso Scale Discovery. Levels of phospho-STAT1 were determined using a CST-PathScan Phospho-STAT1 (Tyr701) Sandwich ELISA kit. Levels of phospho-STAT4 were determined using a Phospho-STAT4 (Tyr693) Whole Cell Lysate kit from Meso Scale Discovery.

For test [2], the system named is IL-2 stimulated STAT5 phosphorylation on Tyr694 (JAK1/3). Description: JAK1/3 cellular target modulation: IL-2 stimulated phospho-STAT5 in human PBMC. As to conditions: IL-2 25 ng/ml, read-out: IL2-STAT5 IC50. The class given is cell-based.
Description: as §3

A further test has as its target T3, Tyk-2 (Homo sapiens, UniProt P29597).
T3 construct: purchased Thermo Fisher Scientific (SelectScreen service)
As to the kind of experiment: Tyk-2 enzyme activity assay (Thermo Fisher Selectscreen, Z-lyte). Format: biochemical. As to conditions: read-out: Tyk-2 Inhibition IC50. As for the experimental part:
as §1
TYK2: The 2×TYK2/Tyr 03 mixture is prepared in 50 mM HEPES pH 6.5, 0.01% BRIJ-35, 10 mM MgCl2, 1 mM EGTA, 0.02% NaN3. The final 10 μL Kinase Reaction consists of 3.75-15 ng TYK2 and 2 μM Tyr 03 in 50 mM HEPES pH 7.0, 0.01% BRIJ-35, 10 mM MgCl2, 1 mM EGTA, 0.01% NaN3. After the one hour KinaseReaction incubation, 5 μL of a 1:4096 dilution of Development Reagent A is added.
as §2

Another test addresses T4, JAK1 (Homo sapiens, UniProt P23458).
T4 construct: purchased Thermo Fisher Scientific (SelectScreen service)
As to the kind of experiment: JAK1 enzyme activity assay (Thermo Fisher Selectscreen, Z-lyte). As to conditions: read-out: JAK1 Inhibition IC50. Format: biochemical. As to the method: as §1
JAK1: The 2×JAK-enzyme/Tyr 06 mixture is prepared in 50 mM HEPES pH 6.5, 0.01% BRIJ-35, 10 mM MgCl2, 1 mM EGTA, 0.02% NaN3. The final 10 μL of the Kinase Reaction consists of 21.2-91.5 ng JAK1 and 2 μM Tyr 06 in 50 mM HEPES pH 7.0, 0.01% BRIJ-35, 10 mM MgCl2, 1 mM EGTA, 0.01% NaN3. After the one hour Kinase Reaction incubation, 5 μL of a 1:128 dilution of Development Reagent is added.
as §2

Test [3] has as its system IFNγ stimulated STAT1 phosphorylation on Tyr701 (JAK1/2). Description: JAK1/2 cellular target modulation: IFNγ stimulated phospho-STAT1 in human PBMC. The class given is cell-based. The following applies: IFNγ 10 ng/ml, read-out: Infγ-STAT1 IC50.
Description: as §3

The values that follow come from patent US20220235043A1, “SUBSTITUTED SULFONAMIDE PYRROLOPYRIDINES AS JAK INHIBITORS” (ACLARIS THERAPEUTICS, INC., priority 2019, published 2022).

T1 sequence (O60674 whole entry): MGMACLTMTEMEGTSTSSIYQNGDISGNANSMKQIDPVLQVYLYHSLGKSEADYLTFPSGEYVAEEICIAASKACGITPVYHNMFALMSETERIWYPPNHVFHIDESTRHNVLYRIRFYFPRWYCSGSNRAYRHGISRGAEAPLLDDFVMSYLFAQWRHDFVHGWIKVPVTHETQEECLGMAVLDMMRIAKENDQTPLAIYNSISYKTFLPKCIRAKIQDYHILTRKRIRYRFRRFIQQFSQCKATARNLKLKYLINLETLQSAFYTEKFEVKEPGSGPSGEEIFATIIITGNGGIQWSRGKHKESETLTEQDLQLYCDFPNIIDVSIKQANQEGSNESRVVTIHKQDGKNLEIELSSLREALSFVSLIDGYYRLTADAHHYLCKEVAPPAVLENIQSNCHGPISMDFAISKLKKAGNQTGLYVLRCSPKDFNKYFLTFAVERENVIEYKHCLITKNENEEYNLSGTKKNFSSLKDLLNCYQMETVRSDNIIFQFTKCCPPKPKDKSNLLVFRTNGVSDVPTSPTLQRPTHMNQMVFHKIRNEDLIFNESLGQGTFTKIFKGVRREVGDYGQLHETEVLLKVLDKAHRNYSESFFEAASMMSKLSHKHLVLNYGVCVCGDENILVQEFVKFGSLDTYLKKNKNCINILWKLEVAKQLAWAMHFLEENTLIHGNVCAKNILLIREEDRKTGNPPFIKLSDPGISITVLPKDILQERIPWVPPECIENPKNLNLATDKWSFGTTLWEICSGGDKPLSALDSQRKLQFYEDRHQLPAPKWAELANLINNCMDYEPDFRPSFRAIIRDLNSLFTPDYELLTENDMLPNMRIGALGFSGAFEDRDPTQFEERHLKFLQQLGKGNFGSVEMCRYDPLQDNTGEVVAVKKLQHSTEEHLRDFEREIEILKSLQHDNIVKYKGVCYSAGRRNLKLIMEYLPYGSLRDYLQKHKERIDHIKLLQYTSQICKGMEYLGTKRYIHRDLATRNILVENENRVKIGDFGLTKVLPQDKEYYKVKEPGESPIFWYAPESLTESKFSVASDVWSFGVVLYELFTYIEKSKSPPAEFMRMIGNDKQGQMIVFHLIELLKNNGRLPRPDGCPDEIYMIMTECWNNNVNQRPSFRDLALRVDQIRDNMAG
T4 sequence (P23458 whole entry): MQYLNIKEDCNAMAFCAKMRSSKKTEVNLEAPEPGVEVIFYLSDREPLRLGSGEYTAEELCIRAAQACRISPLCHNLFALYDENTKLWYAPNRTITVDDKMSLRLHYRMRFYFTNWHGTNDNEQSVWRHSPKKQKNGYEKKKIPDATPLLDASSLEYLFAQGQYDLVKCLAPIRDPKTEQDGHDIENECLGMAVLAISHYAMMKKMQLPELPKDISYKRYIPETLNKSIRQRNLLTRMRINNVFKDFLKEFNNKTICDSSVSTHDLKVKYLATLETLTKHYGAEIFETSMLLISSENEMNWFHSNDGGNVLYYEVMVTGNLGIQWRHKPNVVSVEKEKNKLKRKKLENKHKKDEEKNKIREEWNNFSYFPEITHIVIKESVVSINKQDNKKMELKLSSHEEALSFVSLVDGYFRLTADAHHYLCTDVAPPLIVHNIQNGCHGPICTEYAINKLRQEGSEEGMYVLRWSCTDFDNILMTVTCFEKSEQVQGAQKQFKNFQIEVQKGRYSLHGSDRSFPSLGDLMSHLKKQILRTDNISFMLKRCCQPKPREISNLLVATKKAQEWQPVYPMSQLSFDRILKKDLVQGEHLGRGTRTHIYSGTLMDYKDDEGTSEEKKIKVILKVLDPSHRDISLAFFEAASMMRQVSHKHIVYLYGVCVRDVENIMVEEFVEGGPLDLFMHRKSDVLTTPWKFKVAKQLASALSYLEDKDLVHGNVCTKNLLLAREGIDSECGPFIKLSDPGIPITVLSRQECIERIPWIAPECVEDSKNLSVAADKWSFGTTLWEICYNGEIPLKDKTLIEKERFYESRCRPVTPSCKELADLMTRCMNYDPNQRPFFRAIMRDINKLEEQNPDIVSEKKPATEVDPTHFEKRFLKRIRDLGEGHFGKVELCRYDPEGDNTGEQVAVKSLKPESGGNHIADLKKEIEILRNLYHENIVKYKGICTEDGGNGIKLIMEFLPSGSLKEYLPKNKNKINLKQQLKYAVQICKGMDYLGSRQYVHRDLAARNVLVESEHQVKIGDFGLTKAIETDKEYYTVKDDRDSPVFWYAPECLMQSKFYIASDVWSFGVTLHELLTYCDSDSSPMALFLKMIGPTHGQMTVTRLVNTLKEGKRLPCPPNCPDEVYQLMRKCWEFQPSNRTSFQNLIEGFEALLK
T3 sequence (P29597 whole entry): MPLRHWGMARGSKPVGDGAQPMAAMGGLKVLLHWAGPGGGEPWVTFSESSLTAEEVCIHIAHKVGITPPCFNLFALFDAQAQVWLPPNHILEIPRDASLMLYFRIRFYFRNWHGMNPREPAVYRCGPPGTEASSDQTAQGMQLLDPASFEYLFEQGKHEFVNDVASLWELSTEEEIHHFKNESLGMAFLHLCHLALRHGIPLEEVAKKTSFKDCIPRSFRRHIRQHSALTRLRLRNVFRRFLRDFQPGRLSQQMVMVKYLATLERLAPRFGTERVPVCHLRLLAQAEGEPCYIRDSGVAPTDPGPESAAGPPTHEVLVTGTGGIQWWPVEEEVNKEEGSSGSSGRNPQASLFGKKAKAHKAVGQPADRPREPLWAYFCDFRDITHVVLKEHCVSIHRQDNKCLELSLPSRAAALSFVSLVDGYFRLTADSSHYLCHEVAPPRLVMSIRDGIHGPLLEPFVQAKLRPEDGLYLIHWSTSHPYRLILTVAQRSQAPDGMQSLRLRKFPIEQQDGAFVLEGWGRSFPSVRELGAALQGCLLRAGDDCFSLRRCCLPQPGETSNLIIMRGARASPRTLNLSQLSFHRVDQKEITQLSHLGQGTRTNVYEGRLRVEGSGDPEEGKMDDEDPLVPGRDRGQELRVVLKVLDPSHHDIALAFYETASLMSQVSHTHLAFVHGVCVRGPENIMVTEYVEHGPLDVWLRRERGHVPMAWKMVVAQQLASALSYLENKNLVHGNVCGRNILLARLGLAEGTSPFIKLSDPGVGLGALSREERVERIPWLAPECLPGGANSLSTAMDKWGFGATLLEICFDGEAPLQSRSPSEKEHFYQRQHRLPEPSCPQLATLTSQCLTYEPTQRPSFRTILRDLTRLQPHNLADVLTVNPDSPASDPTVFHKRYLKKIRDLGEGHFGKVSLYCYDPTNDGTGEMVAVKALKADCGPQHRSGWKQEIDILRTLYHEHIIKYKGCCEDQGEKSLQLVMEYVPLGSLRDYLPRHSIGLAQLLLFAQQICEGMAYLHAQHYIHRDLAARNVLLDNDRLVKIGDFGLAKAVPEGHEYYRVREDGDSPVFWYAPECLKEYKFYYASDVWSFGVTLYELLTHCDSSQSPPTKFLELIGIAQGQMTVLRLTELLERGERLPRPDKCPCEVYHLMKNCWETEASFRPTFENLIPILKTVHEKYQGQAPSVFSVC
T2 sequence (P52333 781-1124): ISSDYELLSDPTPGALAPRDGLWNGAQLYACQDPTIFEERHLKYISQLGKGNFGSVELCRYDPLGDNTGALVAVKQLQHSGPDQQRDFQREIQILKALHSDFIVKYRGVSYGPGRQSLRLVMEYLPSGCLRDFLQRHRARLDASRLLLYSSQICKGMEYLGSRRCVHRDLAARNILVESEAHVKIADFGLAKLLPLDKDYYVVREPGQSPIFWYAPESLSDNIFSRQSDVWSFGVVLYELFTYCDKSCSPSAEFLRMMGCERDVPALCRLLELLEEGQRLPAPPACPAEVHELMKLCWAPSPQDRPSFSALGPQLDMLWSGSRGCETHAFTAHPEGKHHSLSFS

The IC50 is the midpoint of a concentration-inhibition curve. With `N#Cc1cccc(S(=O)(=O)N[C@H]2C[C@@H](Nc3c(-c4nccs4)cnc4[nH]ccc34)C2)c1` [Example 69, 3-cyano-N-((1s,3s)-3-((5-(thiazol-2-yl)-1H-pyrrolo[2,3-b]pyridin-4-yl)amino)cyclobutyl)benzenesulfonamide], the IC50 is at most 10 nM at JAK2; at most 10 nM on JAK3 (a.a. 781-1124); 100 to 1000 nM in test [1]; at most 100 nM in test [2]; at most 10 nM on Tyk-2; at most 10 nM on JAK1. In test [3], the IC50 is 100 to 1000 nM.
Take `Cc1nnc(-c2cnc3[nH]ccc3c2N[C@H]2C[C@@H](NS(=O)(=O)CCCC#N)C2)s1` [Example 77, 3-cyano-N-((1s,3s)-3-((5-(5-methyl-1,3,4-thiadiazol-2-yl)-1H-pyrrolo[2,3-b]pyridin-4-yl)amino)cyclobutyl)propane-1-sulfonamide]: the concentration for half-maximal inhibition (IC50) was at most 10 nM at JAK2; 10 to 100 nM at JAK3 (a.a. 781-1124); over 1000 nM in test [1]; 100 to 1000 nM in test [2]; 10 to 100 nM on Tyk-2; at most 10 nM at JAK1. Besides, the half-maximal inhibitory concentration (IC50) in test [3] lay within 100 to 1000 nM.
Turning to `Cc1csc(-c2cnc3[nH]ccc3c2N[C@H]2C[C@@H](NS(=O)(=O)c3cccc(C#N)c3)C2)n1` [Example 73, 3-cyano-N-((1s,3s)-3-((5-(4-methylthiazol-2-yl)-1H-pyrrolo[2,3-b]pyridin-4-yl)amino)cyclobutyl)benzenesulfonamide], the IC50 on JAK2 was at most 10 nM; on JAK3 (a.a. 781-1124), at most 10 nM; in test [1], 100 to 1000 nM; in test [2], 100 to 1000 nM; on Tyk-2 it was 10 to 100 nM; on JAK1, at most 10 nM. Moreover, the IC50 in test [3] was 100 to 1000 nM.
With `Cc1nccc(-c2cnc3[nH]ccc3c2N[C@H]2C[C@@H](NS(=O)(=O)c3cc(C#N)ccn3)C2)n1` [Example 85, 4-cyano-N-((1s,3s)-3-((5-(2-methylpyrimidin-4-yl)-1H-pyrrolo[2,3-b]pyridin-4-yl)amino)cyclobutyl)pyridine-2-sulfonamide], the IC50 is at most 10 nM on JAK2; 10 to 100 nM at JAK3 (a.a. 781-1124); over 1000 nM in test [1]; 100 to 1000 nM in test [2]; 10 to 100 nM at Tyk-2; at most 10 nM at JAK1. In test [3], the half-maximal inhibitory concentration (IC50) fell in the range of 100 to 1000 nM.
Turning to `CCCS(=O)(=O)N[C@H]1C[C@@H](Nc2c(-c3nc(C(=O)NC)co3)cnc3[nH]ccc23)C1` [Example 71, N-methyl-2-(4-(((1s,3s)-3-(propylsulfonamido)cyclobutyl)amino)-1H-pyrrolo[2,3-b]pyridin-5-yl)oxazole-4-carboxamide], the IC50 is 10 to 100 nM at JAK2; 10 to 100 nM on JAK3 (a.a. 781-1124); over 1000 nM in test [1]; 100 to 1000 nM in test [2]; 100 to 1000 nM on Tyk-2; at most 10 nM at JAK1. In addition, in test [3], the IC50 was 100 to 1000 nM.
With `N#Cc1ccnc(S(=O)(=O)N[C@H]2C[C@H](Nc3c(-c4ccncn4)cnc4[nH]ccc34)C2)c1` [Example 63, 4-cyano-N-((1r,3r)-3-((5-(pyrimidin-4-yl)-1H-pyrrolo[2,3-b]pyridin-4-yl)amino)cyclobutyl)pyridine-2-sulfonamide], the half-maximal inhibitory concentration (IC50) is at most 10 nM at JAK2; 10 to 100 nM on JAK3 (a.a. 781-1124); over 1000 nM in test [1]; 100 to 1000 nM in test [2]; 10 to 100 nM at Tyk-2; at most 10 nM on JAK1. Further, the IC50 in test [3] was in the range of 100 to 1000 nM.
Regarding `Cc1nccc(-c2cnc3[nH]ccc3c2N[C@H]2C[C@@H](NS(=O)(=O)c3cccc(C#N)c3)C2)n1` [Example 84, 3-cyano-N-((1s,3s)-3-((5-(2-methylpyrimidin-4-yl)-1H-pyrrolo[2,3-b]pyridin-4-yl)amino)cyclobutyl)benzenesulfonamide], the IC50 was at most 10 nM at JAK2; at most 10 nM on JAK3 (a.a. 781-1124); over 1000 nM in test [1]; at most 100 nM in test [2]; at most 10 nM on Tyk-2; at most 10 nM on JAK1. Besides, the 50% inhibitory concentration (IC50) in test [3] was 100 to 1000 nM.
